Reference: DBAASP
Converted amounts (≈) assume the structure as drawn.

Columns and labels:
Assay in all cases: ≥ marks a high value that may be exact or a test limit, other limits are often not marked, values filed in µg/mL are converted to µM
[1] = test system: Escherichia coli DSM 1103
[2] = test system: Pseudomonas aeruginosa DSM 1128
[3] = test system: Klebsiella pneumoniae DSM 681
[4] = test system: Staphylococcus aureus ATCC 25923
[5] = test system: Streptococcus pneumoniae DSM 11865
[6] = test system: Xanthomonas vesicatoria DSM 50861
[7] = test system: Pectobacterium carotovorum subsp. carotovorum DSM 30168
[8] = test system: Botrytis cinerea
[9] = test system: Pseudomonas corrugata DSM 7228
[10] = test system: Alternaria alternata
[11] = test system: Pseudomonas syringae pv. tomato DC3000
[12] = test system: Cladosporium herbarum
[13] = test system: Pseudomonas syringae pv. syringae DSM 10604
[14] = test system: Clavibacter michiganensis subsp. michiganensis DSM 46294
[15] = test system: Staphylococcus aureus FDA 209P
[16] = test system: Escherichia coli IFO 3972
[17] = test system: Erwinia amylovora PMV 6076
[18] = test system: Xanthomonas campestris pv. Vesicatoria 2133-2
[19] = test system: Xanthomonas arboricola pv. pruni CFBP 5563
[20] = test system: Pseudomonas syringae pv. syringae EPS 94
[21] = test system: Xanthomonas fragariae Xf349-9A
[22] = test system: Pseudomonas syringae pv. actinidiae Psa3700.1.1
[23] = test system: Bacillus anthracis Sterne 34F2
[24] = test system: Bacillus subtilis var. niger ATCC 9372
[25] = test system: Escherichia coli K91BK
[26] = test system: Trichosporon beigelii KCTC 7707
[27] = test system: Candida albicans ATCC 90028
[28] = test system: Malassezia furfur KCTC 7744
[29] = test system: Candida parapsilosis ATCC 22019
[30] = test system: Staphylococcus aureus ATCC 15752
[31] = test system: Pseudomonas aeruginosa ATCC 27853
[32] = test system: Enterococcus faecalis ATCC 29212
[33] = test system: Micrococcus luteus ATCC 10240
[34] = test system: Saccharomyces cerevisiae ATCC 44774
[35] = test system: Bacillus subtilis KCTC 3038
[36] = test system: Salmonella typhimurium KCTC 2370
[37] = test system: Cryptococcus neoformans ATCC 34881
[38] = test system: Candida albicans ATCC 10231
[39] = test system: Escherichia coli ATCC 27325

**Q.** For `CC[C@H](C)[C@H](NC(=O)[C@H](CCC(N)=O)NC(=O)[C@H](CCC(=O)O)NC(=O)[C@H](CCC(=O)O)NC(=O)[C@H](CCCCN)NC(=O)[C@@H]1CCCN1C(=O)[C@H](CC(C)C)NC(=O)[C@H](C)NC(=O)[C@H](CO)NC(=O)[C@H](CC(C)C)NC(=O)[C@@H](NC(=O)[C@H](C)N)C(C)C)C(=O)NCC(=O)N[C@@H](CCCCN)C(=O)N[C@@H](C)C(=O)N[C@@H](CO)C(=O)N[C@H](C(=O)N[C@@H](CCCN=C(N)N)C(=O)NCC(=O)N[C@@H](CCCN=C(N)N)C(=O)N[C@@H](CCCCN)C(=O)N[C@@H](C)C(=O)N[C@@H](C)C(=O)N[C@@H](CCCN=C(N)N)C(=O)N[C@@H](CCCN=C(N)N)C(=O)N[C@@H](CCCCN)C(=O)N[C@@H](CCCCN)C(=O)O)[C@@H](C)O` [AVLSALPKEEQIGKASTRGRKAARRKK], which MIC [1] is on record?
**A.** ≥ 102 µM

**Q.** What about the MIC [2] of the same molecule?
**A.** ≥ 102 µM

**Q.** And the MIC [3]?
**A.** ≥ 102 µM

**Q.** And the MIC [4]?
**A.** > 102 µM

**Q.** What about the MIC [5] of the same molecule?
**A.** ≥ 102 µM

**Q.** For `CC(C)C[C@H](NC(=O)[C@H](C)NC(=O)[C@H](CCCCN)NC(=O)[C@@H](N)CC(C)C)C(=O)N[C@@H](CCCN=C(N)N)C(=O)N[C@@H](CCCCN)C(=O)N[C@@H](C)C(=O)N[C@@H](CC(C)C)C(=O)N[C@@H](CCCCN)C(=O)N[C@@H](Cc1cnc[nH]1)C(=O)N[C@@H](CC(C)C)C(=O)N[C@@H](C)C(N)=O` [LKALRKALKHLA], which MIC [6] is on record?
**A.** 14.7 µM (≈ 20 µg/mL)

**Q.** What about the MIC [7] of the same molecule?
**A.** 29.4 µM (≈ 40 µg/mL)

**Q.** And the MIC [8]?
**A.** ≥ 73.4 µM

**Q.** And the MIC [9]?
**A.** 29.4 µM (≈ 40 µg/mL)

**Q.** And the MIC [10]?
**A.** ≥ 73.4 µM

**Q.** What about the MIC [11] of the same molecule?
**A.** 1.84 µM (≈ 2.5 µg/mL)

**Q.** What about the MIC [12] of the same molecule?
**A.** 14.7 µM (≈ 20 µg/mL)

**Q.** And the MIC [13]?
**A.** 7.34 µM (≈ 9.99 µg/mL)

**Q.** And the MIC [14]?
**A.** 29.4 µM (≈ 40 µg/mL)

**Q.** Which MIC [15] does the source give for `NCCCC[C@H](NC(=O)[C@H](CCCN=C(N)N)NC(=O)[C@H](CCCN=C(N)N)NC(=O)[C@H](CCCN=C(N)N)NC(=O)[C@@H]1CCCN1)C(=O)O` [PRRRK] here?
**A.** ≥ 500 µM

**Q.** And the MIC [16]?
**A.** ≥ 500 µM

**Q.** For `CC[C@H](C)[C@H](NC(=O)[C@H](CCC(=O)O)NC(=O)[C@H](CC(N)=O)NC(=O)[C@H](CC(C)C)NC(=O)[C@H](C)NC(=O)[C@H](CCCCN)NC(=O)[C@@H](N)CCC(N)=O)C(=O)N[C@@H](CC(N)=O)C(=O)N[C@@H](CCC(N)=O)C(=O)N[C@@H](Cc1ccccc1)C(N)=O` [QKALNEINQF], which MIC [17] is on record?
**A.** ≥ 50 µM

**Q.** And the MIC [18]?
**A.** ≥ 50 µM

**Q.** And the MIC [19]?
**A.** ≥ 50 µM

**Q.** And the MIC [20]?
**A.** ≥ 50 µM

**Q.** And the MIC [21]?
**A.** ≥ 50 µM

**Q.** What about the MIC [22] of the same molecule?
**A.** ≥ 50 µM

**Q.** What does the source list for `CC(=O)N[C@@H](CCCN=C(N)N)C(=O)NCC(=O)N[C@@H](CCCN=C(N)N)C(=O)NCC(=O)N[C@@H](CCCCN)C(=O)N[C@@H](CCC(N)=O)C(=O)NCC(=O)NCC(=O)N[C@@H](CCCCN)C(=O)N[C@H](C(=O)N[C@@H](CCCN=C(N)N)C(=O)N[C@@H](C)C(=O)N[C@@H](CCCCN)C(=O)N[C@@H](C)C(=O)N[C@@H](CCCCN)C(=O)N[C@H](C(=O)N[C@@H](CCCN=C(N)N)C(=O)N[C@@H](CO)C(=O)N[C@@H](CO)C(N)=O)[C@@H](C)O)C(C)C` [RGRGKQGGKVRAKAKTRSS]?
**A.** MIC [23]: ≥ 100 µM; MIC [24]: ≥ 100 µM; MIC [25]: ≥ 100 µM

**Q.** For `CC[C@H](C)[C@H](NC(=O)[C@H](C)NC(=O)[C@H](CCCCN)NC(=O)[C@H](CCCN=C(N)N)NC(=O)[C@H](CS)NC(=O)[C@H](CCCN=C(N)N)NC(=O)[C@H](CCCCN)NC(=O)[C@@H](NC(=O)[C@H](CC(N)=O)NC(=O)[C@H](CCCN=C(N)N)NC(=O)[C@H](CCC(=O)O)NC(=O)[C@H](CS)NC(=O)[C@H](CO)NC(=O)[C@@H](NC(=O)[C@H](CCCCN)NC(=O)[C@H](Cc1cnc[nH]1)NC(=O)[C@H](CC(N)=O)NC(=O)CNC(=O)[C@H](CC(C)C)NC(=O)[C@H](CCCCN)NC(=O)[C@H](CCCCN)NC(=O)[C@H](CCSC)NC(=O)[C@@H](N)CCCN=C(N)N)C(C)C)[C@@H](C)O)C(=O)O` [RMKKLGNHKVSCERNTKRCRKAI], which MIC [26] is on record?
**A.** 20 µM (≈ 55.1 µg/mL)

**Q.** What about the MIC [27] of the same molecule?
**A.** 10 µM (≈ 27.6 µg/mL)

**Q.** And the MIC [28]?
**A.** 14.1 µM (≈ 39 µg/mL)

**Q.** And the MIC [29]?
**A.** 10 µM (≈ 27.6 µg/mL)

**Q.** For `CC(C)[C@H](NC(=O)CNC(=O)[C@H](CCC(N)=O)NC(=O)[C@@H](NC(=O)[C@@H](NC(=O)[C@@H]1CCCN1C(=O)[C@H](CCCN=C(N)N)NC(=O)[C@@H](NC(=O)[C@@H](NC(=O)[C@@H](N)CCCN=C(N)N)C(C)C)C(C)C)C(C)C)C(C)C)C(=O)N[C@@H](CCCCN)C(=O)N[C@@H](CCC(=O)O)C(=O)N[C@@H](CCCCN)C(=O)N[C@H](C(=O)N[C@@H](CCCN=C(N)N)C(=O)O)C(C)C` [RVVRPVVQGVKEKVR], which MIC [30] is on record?
**A.** ≥ 36.6 µM

**Q.** And the MIC [31]?
**A.** > 36.6 µM

**Q.** What about the MIC [32] of the same molecule?
**A.** > 36.6 µM

**Q.** And the MIC [33]?
**A.** ≥ 36.6 µM

**Q.** What about the MIC [34] of the same molecule?
**A.** ≥ 36.6 µM

**Q.** What about the MIC [35] of the same molecule?
**A.** ≥ 36.6 µM

**Q.** What about the MIC [36] of the same molecule?
**A.** ≥ 36.6 µM

**Q.** What about the MIC [37] of the same molecule?
**A.** ≥ 36.6 µM

**Q.** And the MIC [38]?
**A.** > 36.6 µM

**Q.** And the MIC [39]?
**A.** ≥ 36.6 µM
